# Measured values: patent US12697326B2, “Methods of treating hepatic encephalopathy” (SALIX PHARMACEUTICALS, INC., priority 2008, dated 2026)
# Test system: breakthrough HE episode in subjects with hepatic encephalopathy (HE)
# Experiment: Time to first breakthrough (overt) HE episode, first study, rifaximin vs placebo
# Format: in vivo, human
# Details: for Cumulative number of events / Number of events / Probability of no breakthrough overt HE (Kaplan-Meier event-free estimate): ITT, first breakthrough overt HE
# Text: An increase in the Conn score of greater than or equal to grade 2 was considered as a breakthrough HE episode.
# An efficacy endpoint was the time to first breakthrough overt HE episode. A breakthrough overt HE episode was defined as an increase of Conn score to Grade ≥2 (e.g., 0) or 1 to ≥2) or an increase in Conn and asterixis score of 1 grade each for those subjects who entered the study with a Conn score of 0. Time to breakthrough overt HE episode was the duration from time of first dose of study drug to the first breakthrough overt HE episode. […] Subjects who terminated early for reasons other than breakthrough overt HE were contacted at 6 months from randomization to determine if subjects had experienced a breakthrough overt HE episode or other outcome (e.g., mortality status); and, if the subject had no breakthrough overt HE event prior to contact, he/she was censored at the time of contact. […] Subjects in the study had ≥2 episodes of overt HE equivalent to Conn score ≥2 within 6 months prior to screening (i.e., subjects had documented recurrent, overt HE). At the baseline assessment, subjects were in remission with a Conn score of 0 or 1. A breakthrough overt HE episode, as defined above, was a marked deterioration in neurological function.
# Presented herein are the results of the first study and second study. […] The primary efficacy endpoint was the time to breakthrough overt HE. Breakthrough overt HE was defined as an increase of Conn score to Grade ≥2 (e.g., 0 or 1 to ≥2) or an increase in Conn and asterixis score of 1 grade each for those subjects who entered the study with a Conn score of 0. Subjects discontinued from the study at the time of breakthrough overt HE episode. After participation in the first study, subjects had the option to enroll in the open-label, treatment-extension study (the second study).
# FIG. 1 illustrates Kaplan-Meier estimates of time to first breakthrough overt HE episode by treatment group in the ITT population. Table 18 presents Kaplan-Meier estimates of the proportions of subjects who experienced breakthrough overt HE over the course of the Treatment Period and results of statistical analyses. […] Subjects who terminated early for reasons other than breakthrough overt HE (eg, liver transplant, AE, subject request) were contacted at 6 months from date of randomization to determine if subjects had experienced a breakthrough overt HE episode or other outcome (e.g., mortality status). Subjects without breakthrough overt HE were censored at the time of contact or death, whichever was earlier.
# [1] = breakthrough HE episode by prior lactulose use; 550 mg BID; N = 123; Days [0-28)
# [2] = breakthrough HE episode by prior lactulose use; 550 mg BID; N = 123; Days [28-56)
# [3] = breakthrough HE episode by prior lactulose use; 550 mg BID; N = 123; Days [56-84)
# [4] = breakthrough HE episode by prior lactulose use; 550 mg BID; N = 123; Days [84-140)
# [5] = breakthrough HE episode by prior lactulose use; 550 mg BID; N = 123; Days [140-168)
# [6] = breakthrough HE episode by prior lactulose use, 550 mg BID, N = 127, Days >=168
# [7] = breakthrough HE episode by prior lactulose use; 550 mg BID; N = 127; Days [0-28)
# [8] = breakthrough HE episode by prior lactulose use, 550 mg BID, N = 127, Days [28-56]
# [9] = breakthrough HE episode by prior lactulose use, 550 mg BID, N = 127, Days [56-84]
# [10] = breakthrough HE episode by prior lactulose use; 550 mg BID; N = 127; Days [84-140)
# [11] = breakthrough HE episode by prior lactulose use; 550 mg BID; N = 127; Days [140-168)
# [12] = breakthrough HE episode, 550 mg BID, N = 140, Days >=168
# [13] = breakthrough HE episode; 550 mg BID; N = 140; Days [0-28)
# [14] = breakthrough HE episode; 550 mg BID; N = 140; Days [28-56)
# [15] = breakthrough HE episode; 550 mg BID; N = 140; Days [56-84)
# [16] = breakthrough HE episode; 550 mg BID; N = 140; Days [84-140)
# [17] = breakthrough HE episode; 550 mg BID; N = 140; Days [140-168)
# [18] = first study, N = 140, treatment interval 0 to <28 days
# [19] = first study, N = 140, treatment interval 28 to 56 days
# [20] = first study, N = 140, treatment interval 56 to <84 days
# [21] = first study, N = 140, treatment interval 84 to <149 days
# [22] = first study, N = 140, treatment interval 140 to <168 days
# [23] = first study, N = 140, treatment interval ≥168 days
structure (smiles),measurement,setting,value
CO[C@H]1/C=C/O[C@@]2(C)Oc3c(C)c(O)c4c(O)c(c5c(nc6cc(C)ccn65)c4c3C2=O)NC(=O)/C(C)=C\C=C\[C@H](C)[C@H](O)[C@@H](C)[C@@H](O)[C@@H](C)[C@H](OC(C)=O)[C@@H]1C [Rifaximin],Occurrences of Events,[1],12
same,Survival,[1],1.0000
same,Cumulative Occurrences of Events,[2],16
same,Occurrences of Events,[2],4
same,Survival,[2],0.9024
same,Cumulative Occurrences of Events,[3],21
same,Occurrences of Events,[3],5
same,Survival,[3],0.8696
same,Cumulative Occurrences of Events,[4],28
same,Occurrences of Events,[4],7
same,Survival,[4],0.8278
same,Cumulative Occurrences of Events,[5],29
same,Occurrences of Events,[5],1
same,Survival,[5],0.7678
same,Cumulative Occurrences of Events,[6],29
same,Occurrences of Events,[6],0
same,Survival,[6],0.7666
same,Cumulative Occurrences of Events,[7],12
same,Occurrences of Events,[7],12
same,Survival,[7],1.0000
same,Cumulative Occurrences of Events,[8],16
same,Occurrences of Events,[8],4
same,Survival,[8],0.9055
same,Cumulative Occurrences of Events,[9],22
same,Occurrences of Events,[9],6
same,Survival,[9],0.8737
same,Cumulative Occurrences of Events,[10],28
same,Occurrences of Events,[10],6
same,Survival,[10],0.8252
same,Cumulative Occurrences of Events,[11],25
same,Occurrences of Events,[11],1
same,Survival,[11],0.7754
same,Cumulative Occurrences of Events,[12],31
same,Occurrences of Events,[12],0
same,Survival,[12],0.7740
same,Cumulative Occurrences of Events,[13],13
same,Occurrences of Events,[13],13
same,Survival,[13],1.0000
same,Cumulative Occurrences of Events,[14],17
same,Occurrences of Events,[14],4
same,Survival,[14],0.9071
same,Cumulative Occurrences of Events,[15],23
same,Occurrences of Events,[15],6
same,Survival,[15],0.8783
same,Cumulative Occurrences of Events,[16],30
same,Occurrences of Events,[16],7
same,Survival,[16],0.8344
same,Cumulative Occurrences of Events,[17],31
same,Occurrences of Events,[17],1
same,Survival,[17],0.7820
same,"reduction, compared with placebo, in the risk of a breakthrough overt HE episode after adjusting for prognostic factors",first study,60%
same,Cumulative number of events,[18],13
same,Number of events,[18],13
same,Probability of no breakthrough overt HE (Kaplan-Meier event-free estimate),[18],1.0000
same,Cumulative number of events,[19],17
same,Number of events,[19],4
same,Probability of no breakthrough overt HE (Kaplan-Meier event-free estimate),[19],0.9071
same,Cumulative number of events,[20],23
same,Number of events,[20],6
same,Probability of no breakthrough overt HE (Kaplan-Meier event-free estimate),[20],0.8783
same,Cumulative number of events,[21],30
same,Number of events,[21],7
same,Probability of no breakthrough overt HE (Kaplan-Meier event-free estimate),[21],0.8344
same,Cumulative number of events,[22],31
same,Number of events,[22],1
same,Probability of no breakthrough overt HE (Kaplan-Meier event-free estimate),[22],0.7820
same,Cumulative number of events,[23],31
same,Number of events,[23],0
same,Probability of no breakthrough overt HE (Kaplan-Meier event-free estimate),[23],0.7740
same,proportion of subjects with breakthrough overt HE,"first study, rifaximin group",22%
same,subjects who experienced breakthrough overt HE episodes (of 140),"first study, rifaximin group, 6-month period, up to Day 170",31
same,"time to breakthrough HE event vs placebo (FIG. 2, Kaplan Meier)",in vivo,increased time to breakthrough HE events
